# Measurements taken from patent US20230390297A1, “USE OF NUCLEOTIDE SYNTHESIS INHIBITORS FOR TARGETED THERAPY IN MLL3/4 COMPASS MUTANT CANCER” (priority 2022, published 2023).
# Legend:
# [1] = tested on: RKO, HCT116, DLD1, Caco2, HT55 and SW1417 cells; assay: Western blot of cell cycle and apoptosis markers in colorectal cancer cells; format: cell-based, human; conditions: 1 μM LTX, 24 hours; MLL4 mutant vs WT cells
# Experimental: FIG. 5. MLL4 mutant colorectal cancer cells are selectively sensitive to lometrexol treatment. (A) 100 μL of 0.5×10^5 cells/mL cells were seeded in 96-well plates one day before treatment. Cells were treated with 0-30 μM lometrexol (LTX) with 3× fold dilution for 72 hours. CellTiter-Glo® luminescent cell viability assay was performed to determine the percentage of inhibition under these conditions. The line plot compares sensitivity difference of all cell lines tested. (B) RKO, HCT116, DLD1, Caco2, HT55 and SW1417 cells were treated with DMSO or 1 μM LTX for 24 hours and whole cell lysates were used for western blot against cell cycle (H3 Ser10-p, CDT1, CyclinB 1, Geminin, CyclinEl, CyclinA2, p-cdc2) and apoptosis (PARP, Caspase3) markers using Hsp90 and I3-tubulin as loading control. […] (F) A subset of representative terms from the full cluster were selected and converted into a network layout. Each term is represented by a circle node, where its size is proportional to the number of input genes fall under that term, and its color represent its cluster identity. Terms with a similarity score>0.3 are linked by an edge (the thickness of the edge represents the similarity score). The network is visualized with Cytoscape with “force-directed” layout and with edge bundled for clarity. One term from each cluster is selected to have its term description shown as label. […]
# [2] = tested on: RKO, HCT116, DLD1 (MLL4 mutant) and HT55, Caco2, SW1417 (MLL4 WT) cells; assay: RNA-seq in colorectal cancer cells treated with LTX; format: cell-based, human; conditions: 1 μM LTX, 24 hours
# Experimental: FIG. 5. MLL4 mutant colorectal cancer cells are selectively sensitive to lometrexol treatment. (A) 100 μL of 0.5×10^5 cells/mL cells were seeded in 96-well plates one day before treatment. Cells were treated with 0-30 μM lometrexol (LTX) with 3× fold dilution for 72 hours. CellTiter-Glo® luminescent cell viability assay was performed to determine the percentage of inhibition under these conditions. The line plot compares sensitivity difference of all cell lines tested. (B) RKO, HCT116, DLD1, Caco2, HT55 and SW1417 cells were treated with DMSO or 1 μM LTX for 24 hours and whole cell lysates were used for western blot against cell cycle (H3 Ser10-p, CDT1, CyclinB 1, Geminin, CyclinEl, CyclinA2, p-cdc2) and apoptosis (PARP, Caspase3) markers using Hsp90 and I3-tubulin as loading control. […] (F) A subset of representative terms from the full cluster were selected and converted into a network layout. Each term is represented by a circle node, where its size is proportional to the number of input genes fall under that term, and its color represent its cluster identity. Terms with a similarity score>0.3 are linked by an edge (the thickness of the edge represents the similarity score). The network is visualized with Cytoscape with “force-directed” layout and with edge bundled for clarity. One term from each cluster is selected to have its term description shown as label.
# FIG. 18. RNA-seq data in colorectal cancer cells treated with LTX. (A) Cellular morphological change in different cells treated with LTX at 1 μM for 24 hours under bring field microscope.
# FIG. 19. The unique gene expression signature of MLL4 mutant cells in response to LTX treatment. (A-B) RNA-seq track examples showing the AURKA (A) and PLK1 (B) gene expression in different cell lines in response to LTX treatment. […] The 10 common genes found in the plots were defined as “lometrexol responsive mitotic gene signature” including PLK1, AURKA, CDCA3, CDC20, SFPQ, POLA1, PSRC1, KIF20A, FAM83D, and DLGAP5. (D) Volcano plots showing the 10 genes in MLL4 WT cell lines including HT55, Caco2, and SW1417.
# Gene count tables were constructed using HTseq (56) with Ensembl gene annotations and used as input for edgeR 3.0.8 (57). Genes with Benjamini-Hochburg adjusted p-values less than were differentially expressed. Batch effects were removed using ComB at-seq on the raw read counts (58). Pathway analysis was performed with Metascape (59).
compound,measurement,setting,value
"Nc1nc2c(c(=O)[nH]1)C[C@@H](CCc1ccc(C(=O)N[C@@H](CCC(=O)O)C(=O)O)cc1)CN2 [lometrexol, (2S)-2-[[4-[2-[(6R)-2-amino-4-oxo-5,6,7,8-tetrahydro-3H-pyrido[2,3-d]pyrimidin-6-yl]ethyl]benzoyl]amino]pentanedioic acid]","cell cycle markers H3 Ser10-p, CDT1, CyclinB1 (western blot)",[1],"significant downregulation of histone H3 Serine10 phosphorylation (H3 Ser10-p), CDT1 and CyclinB1 was observed only in MLL4 mutant cells but not WT cells"
same,differential gene expression change,[2]; MLL4 mutant vs WT cells,only induced significant differential gene expression change in MLL4 mutant cells
same,PLK1 and AURKA gene expression,[2]; remained the same in MLL4 WT cells,remarkably diminished in all MLL4 mutant cells
same,"genes commonly downregulated in all MLL4 mutant cells (RKO, HCT116, DLD1)",[2]; unaffected in MLL4 WT cells,885 genes
same,"genes commonly upregulated in MLL4 mutant cells (RKO, HCT116, DLD1)",[2]; unaffected in MLL4 WT cells,707 genes
